Measured values from ChEMBL document CHEMBL1201862, “PubChem BioAssay data set” (2004).
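In this assay, cells in 96-well plates receive the compound at five concentrations for 48 hours. Endpoints are linearly interpolated between the surrounding concentrations. Here, GI50 denotes the concentration required for 50% inhibition of growth.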 The source made the active and inactive calls. Cut-off read from the data, not from the text of the source: active = GI50 up to about 1.1 µM and inactive = higher.

Columns and labels:
Assay in all cases: NCI-60 cell line screen, 48 h
HCC 2998 = system: HCC 2998
NCI-H460 = system: NCI-H460
NCI-H226 = system: NCI-H226
HOP-92 = system: HOP-92
SNB-75 = system: SNB-75
HCT-15 = system: HCT-15
EKVX = system: EKVX
SK-MEL-2 = system: SK-MEL-2
K562 = system: K562
SF-268 = system: SF-268
786-0 = system: 786-0
TK-10 = system: TK-10
UO-31 = system: UO-31
SF-539 = system: SF-539
M14 = system: M14
SR = system: SR
IGROV-1 = system: IGROV-1
Malme-3M = system: Malme-3M
RXF 393 = system: RXF 393
RPMI-8226 = system: RPMI-8226

SMILES	GI50 (HCC 2998)	GI50 (NCI-H460)	GI50 (NCI-H226)	GI50 (HOP-92)	GI50 (SNB-75)	GI50 (HCT-15) [µM]	GI50 (EKVX)	GI50 (SK-MEL-2)	GI50 (K562)	GI50 (SF-268)	GI50 (786-0)	GI50 (TK-10)	GI50 (UO-31)	GI50 (SF-539)	GI50 (M14)	GI50 (SR)	GI50 (IGROV-1)	GI50 (Malme-3M)	GI50 (RXF 393)	GI50 (RPMI-8226)
C/C(=N\NC(=O)C(N)=O)c1c(O)cc(C)oc1=O	> 100 µM (inactive)	> 100 µM (inactive)	> 100 µM (inactive)	> 100 µM (inactive)	> 100 µM (inactive)	> 100	> 100 µM (inactive)	> 100 µM (inactive)	> 100 µM (inactive)	> 100 µM (inactive)	> 100 µM (inactive)	> 100 µM (inactive)	> 100 µM (inactive)	> 100 µM (inactive)	> 100 µM (inactive)	> 100 µM (inactive)	> 100 µM (inactive)	> 100 µM (inactive)	–	–
CC(=O)C(=C(I)I)c1ccccc1	24.5 µM (inactive)	33.4 µM (inactive)	11.5 µM (inactive)	37.2 µM (inactive)	–	29.3	25.7 µM (inactive)	21.8 µM (inactive)	15 µM (inactive)	25.1 µM (inactive)	19.7 µM (inactive)	–	19.2 µM (inactive)	21.1 µM (inactive)	14.5 µM (inactive)	13.1 µM (inactive)	26.1 µM (inactive)	12.3 µM (inactive)	20 µM (inactive)	–
Cn1c(=O)c2ccccc2c2nc3ccccc3nc21	> 100 µM (inactive)	–	> 100 µM (inactive)	–	25.2 µM (inactive)	> 100	> 100 µM (inactive)	> 100 µM (inactive)	> 100 µM (inactive)	> 100 µM (inactive)	97.5 µM (inactive)	45.5 µM (inactive)	> 100 µM (inactive)	92.3 µM (inactive)	–	> 100 µM (inactive)	> 100 µM (inactive)	> 100 µM (inactive)	> 100 µM (inactive)	> 100 µM (inactive)
COc1ccc(S(=O)(=O)N/N=C/CN2C(=O)c3ccccc3C2=O)cc1OC	> 100 µM (inactive)	> 100 µM (inactive)	–	–	65.2 µM (inactive)	> 100	> 100 µM (inactive)	> 100 µM (inactive)	> 100 µM (inactive)	> 100 µM (inactive)	> 100 µM (inactive)	–	> 100 µM (inactive)	> 100 µM (inactive)	> 100 µM (inactive)	> 100 µM (inactive)	> 100 µM (inactive)	> 100 µM (inactive)	> 100 µM (inactive)	> 100 µM (inactive)
CC12CCCC(C#N)(C1)OC2=O (stereo unspecified)	–	> 100 µM (inactive)	> 100 µM (inactive)	> 100 µM (inactive)	> 100 µM (inactive)	–	> 100 µM (inactive)	> 100 µM (inactive)	> 100 µM (inactive)	> 100 µM (inactive)	> 100 µM (inactive)	> 100 µM (inactive)	> 100 µM (inactive)	> 100 µM (inactive)	> 100 µM (inactive)	> 100 µM (inactive)	> 100 µM (inactive)	> 100 µM (inactive)	> 100 µM (inactive)	–
CC1CCCCNC1=S (stereo unspecified)	–	> 10 µM (inactive)	> 10 µM (inactive)	> 10 µM (inactive)	> 10 µM (inactive)	> 10	> 10 µM (inactive)	> 10 µM (inactive)	> 10 µM (inactive)	> 10 µM (inactive)	–	> 10 µM (inactive)	> 10 µM (inactive)	> 10 µM (inactive)	> 10 µM (inactive)	> 10 µM (inactive)	> 10 µM (inactive)	> 10 µM (inactive)	> 10 µM (inactive)	–
Cc1nn(C(=O)Cc2ccccc2)c2c1C(c1ccc3ccccc3c1O)SC(=N)N2 (stereo unspecified)	> 100 µM (inactive)	> 100 µM (inactive)	> 100 µM (inactive)	–	52.1 µM (inactive)	> 100	> 100 µM (inactive)	–	> 100 µM (inactive)	> 100 µM (inactive)	–	> 100 µM (inactive)	80 µM (inactive)	> 100 µM (inactive)	> 100 µM (inactive)	48.9 µM (inactive)	> 100 µM (inactive)	–	–	76.2 µM (inactive)
O=P(O)(Cc1ccccc1)c1ccccc1-c1ccccc1	> 100 µM (inactive)	62.7 µM (inactive)	> 100 µM (inactive)	–	> 100 µM (inactive)	> 100	41.9 µM (inactive)	> 100 µM (inactive)	> 100 µM (inactive)	> 100 µM (inactive)	> 100 µM (inactive)	> 100 µM (inactive)	> 100 µM (inactive)	> 100 µM (inactive)	> 100 µM (inactive)	> 100 µM (inactive)	> 100 µM (inactive)	> 100 µM (inactive)	54.6 µM (inactive)	–
